According to the kinase profiling compilation of Christmann-Franck et al. (2016):

Tests used:
Test in all cases: KINOMEscan competition binding
Details in all cases: compound 10.0 µM
AURKA (human) = AURKA (human) (UniProt O14965)
MAPKAPK5 (human) = MAPKAPK5 (human) (UniProt Q8IW41)
ADCK4 (human) = ADCK4 (human) (UniProt Q96D53)
AURKC (human) = AURKC (human) (UniProt Q9UQB9)
[1] = target: JAK1 JH2 pseudokinase (human) (UniProt P23458)
[2] = tested on: ABL1 (human), P00519 [H396P]
STK17B (human) = STK17B (human) (UniProt O94768)
CDK7 (human) = CDK7 (human) (UniProt P50613)
MAP4K2 (human) = MAP4K2 (human) (UniProt Q12851)
RAF1 (human) = RAF1 (human) (UniProt P04049)
ABL1 (human) = ABL1 (human) (UniProt P00519)
SRC (human) = SRC (human) (UniProt P12931)
CSNK2A2 (human) = CSNK2A2 (human) (UniProt P19784)
MAP4K1 (human) = MAP4K1 (human) (UniProt Q92918)
MYLK (human) = MYLK (human) (UniProt Q15746)
MYLK (human), sequence (Q15746 whole entry, looked up): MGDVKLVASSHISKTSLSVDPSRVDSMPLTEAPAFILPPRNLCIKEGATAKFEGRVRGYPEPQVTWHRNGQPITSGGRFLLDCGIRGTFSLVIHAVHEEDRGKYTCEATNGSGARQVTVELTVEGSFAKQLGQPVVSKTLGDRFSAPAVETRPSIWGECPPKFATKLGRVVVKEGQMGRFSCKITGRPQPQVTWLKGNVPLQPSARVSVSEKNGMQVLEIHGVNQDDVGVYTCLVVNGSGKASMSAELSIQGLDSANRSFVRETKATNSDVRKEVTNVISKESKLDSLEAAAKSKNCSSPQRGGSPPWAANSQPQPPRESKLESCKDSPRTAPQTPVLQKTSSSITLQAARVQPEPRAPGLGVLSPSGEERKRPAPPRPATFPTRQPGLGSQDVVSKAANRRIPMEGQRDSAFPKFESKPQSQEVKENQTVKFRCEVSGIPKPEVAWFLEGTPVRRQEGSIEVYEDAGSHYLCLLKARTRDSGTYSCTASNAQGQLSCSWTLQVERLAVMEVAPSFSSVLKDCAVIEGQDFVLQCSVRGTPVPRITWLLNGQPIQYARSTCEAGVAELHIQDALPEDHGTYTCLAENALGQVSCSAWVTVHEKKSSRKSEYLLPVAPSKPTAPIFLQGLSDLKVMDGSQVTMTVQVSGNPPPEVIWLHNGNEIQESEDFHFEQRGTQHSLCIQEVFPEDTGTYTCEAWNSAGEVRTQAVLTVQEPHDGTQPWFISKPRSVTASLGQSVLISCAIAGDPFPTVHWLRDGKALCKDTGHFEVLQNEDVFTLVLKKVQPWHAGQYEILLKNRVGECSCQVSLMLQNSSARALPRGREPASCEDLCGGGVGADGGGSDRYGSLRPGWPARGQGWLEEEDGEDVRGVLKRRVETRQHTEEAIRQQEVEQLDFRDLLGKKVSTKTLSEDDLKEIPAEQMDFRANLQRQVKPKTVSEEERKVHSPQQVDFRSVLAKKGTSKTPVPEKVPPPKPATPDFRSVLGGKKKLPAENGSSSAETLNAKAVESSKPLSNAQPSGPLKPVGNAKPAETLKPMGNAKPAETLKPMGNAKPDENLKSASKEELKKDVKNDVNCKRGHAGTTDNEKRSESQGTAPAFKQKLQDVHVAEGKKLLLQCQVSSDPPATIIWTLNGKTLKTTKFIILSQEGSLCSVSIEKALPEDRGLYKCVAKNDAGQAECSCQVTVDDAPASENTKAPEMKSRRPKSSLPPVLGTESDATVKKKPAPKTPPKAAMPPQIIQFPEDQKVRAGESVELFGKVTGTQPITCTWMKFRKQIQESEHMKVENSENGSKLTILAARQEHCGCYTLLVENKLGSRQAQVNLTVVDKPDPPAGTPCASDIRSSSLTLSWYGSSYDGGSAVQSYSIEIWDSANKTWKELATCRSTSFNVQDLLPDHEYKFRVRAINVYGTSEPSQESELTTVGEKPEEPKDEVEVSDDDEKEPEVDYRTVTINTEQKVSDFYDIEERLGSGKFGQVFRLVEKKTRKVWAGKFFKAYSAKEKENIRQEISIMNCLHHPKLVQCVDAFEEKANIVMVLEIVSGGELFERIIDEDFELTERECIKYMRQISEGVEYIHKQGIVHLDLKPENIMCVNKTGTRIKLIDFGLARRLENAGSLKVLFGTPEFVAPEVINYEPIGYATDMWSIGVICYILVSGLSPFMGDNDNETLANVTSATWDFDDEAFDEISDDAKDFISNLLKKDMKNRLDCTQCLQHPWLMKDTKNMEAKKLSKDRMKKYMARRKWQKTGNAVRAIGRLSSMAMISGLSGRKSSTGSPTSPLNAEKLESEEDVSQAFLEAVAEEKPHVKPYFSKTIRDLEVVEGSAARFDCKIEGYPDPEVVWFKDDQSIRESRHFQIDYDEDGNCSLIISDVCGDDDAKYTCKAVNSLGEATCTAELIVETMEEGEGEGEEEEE

NTRK2 (human) = NTRK2 (human) (UniProt Q16620)
NTRK2 (human), sequence (Q16620 whole entry, looked up): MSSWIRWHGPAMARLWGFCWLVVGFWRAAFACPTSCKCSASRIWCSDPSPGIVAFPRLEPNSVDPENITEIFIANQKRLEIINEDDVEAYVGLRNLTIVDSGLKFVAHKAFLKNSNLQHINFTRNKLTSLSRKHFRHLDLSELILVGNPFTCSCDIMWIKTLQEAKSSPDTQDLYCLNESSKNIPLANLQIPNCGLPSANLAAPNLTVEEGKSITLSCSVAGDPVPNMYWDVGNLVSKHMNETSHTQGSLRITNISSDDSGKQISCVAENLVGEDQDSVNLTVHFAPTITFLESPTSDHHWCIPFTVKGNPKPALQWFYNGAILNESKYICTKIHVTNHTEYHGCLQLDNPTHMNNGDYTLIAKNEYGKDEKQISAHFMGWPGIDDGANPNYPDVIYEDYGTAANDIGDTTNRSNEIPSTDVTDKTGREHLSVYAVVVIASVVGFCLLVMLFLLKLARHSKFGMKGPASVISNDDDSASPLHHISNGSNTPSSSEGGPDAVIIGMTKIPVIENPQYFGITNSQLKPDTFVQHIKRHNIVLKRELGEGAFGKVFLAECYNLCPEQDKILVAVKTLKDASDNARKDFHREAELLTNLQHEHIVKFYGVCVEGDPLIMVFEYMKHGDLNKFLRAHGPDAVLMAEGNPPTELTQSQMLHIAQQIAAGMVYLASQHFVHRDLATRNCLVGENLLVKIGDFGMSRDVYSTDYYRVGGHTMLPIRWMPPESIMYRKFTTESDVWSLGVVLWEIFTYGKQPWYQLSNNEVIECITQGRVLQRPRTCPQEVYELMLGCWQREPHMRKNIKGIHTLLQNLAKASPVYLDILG

ACVR2B (human) = ACVR2B (human) (UniProt Q13705)
ACVR2B (human), sequence (Q13705 whole entry, looked up): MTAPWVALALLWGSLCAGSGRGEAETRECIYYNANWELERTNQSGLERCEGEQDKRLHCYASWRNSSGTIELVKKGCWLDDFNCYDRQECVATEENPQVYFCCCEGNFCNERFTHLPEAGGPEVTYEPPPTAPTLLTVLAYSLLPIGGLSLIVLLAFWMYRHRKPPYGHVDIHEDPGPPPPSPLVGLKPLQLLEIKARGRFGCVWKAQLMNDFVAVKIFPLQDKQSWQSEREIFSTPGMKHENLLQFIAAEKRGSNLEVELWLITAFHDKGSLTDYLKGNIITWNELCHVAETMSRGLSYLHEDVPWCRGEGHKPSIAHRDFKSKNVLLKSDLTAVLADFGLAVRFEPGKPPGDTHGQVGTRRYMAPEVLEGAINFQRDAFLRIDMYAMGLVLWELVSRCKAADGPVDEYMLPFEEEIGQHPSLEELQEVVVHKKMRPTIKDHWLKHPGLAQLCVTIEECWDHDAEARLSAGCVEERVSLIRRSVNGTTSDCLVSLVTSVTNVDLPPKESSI

ACVRL1 (human) = ACVRL1 (human) (UniProt P37023)
EPHA5 (human) = EPHA5 (human) (UniProt P54756)
CSNK1D (human) = CSNK1D (human) (UniProt P48730)
CSNK1D (human), sequence (P48730 whole entry, looked up): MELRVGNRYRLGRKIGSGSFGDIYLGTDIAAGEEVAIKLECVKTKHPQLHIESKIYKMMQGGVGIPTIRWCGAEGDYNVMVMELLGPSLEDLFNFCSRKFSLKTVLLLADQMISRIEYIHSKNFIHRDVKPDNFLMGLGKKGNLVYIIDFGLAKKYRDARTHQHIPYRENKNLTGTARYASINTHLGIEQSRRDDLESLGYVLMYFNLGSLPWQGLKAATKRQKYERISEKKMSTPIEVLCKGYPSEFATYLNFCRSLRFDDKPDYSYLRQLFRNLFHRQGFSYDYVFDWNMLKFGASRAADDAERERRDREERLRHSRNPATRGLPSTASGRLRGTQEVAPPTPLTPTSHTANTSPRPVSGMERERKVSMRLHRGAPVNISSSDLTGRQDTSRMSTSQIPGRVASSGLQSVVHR

DCLK3 (human) = DCLK3 (human) (UniProt Q9C098)
CLK4 (human) = CLK4 (human) (UniProt Q9HAZ1)
CSNK1G3 (human) = CSNK1G3 (human) (UniProt Q9Y6M4)
[3] = tested on: RET (human), P07949 [V804M]
PRKX (human) = PRKX (human) (UniProt P51817)
PRKX (human), sequence (P51817 whole entry, looked up): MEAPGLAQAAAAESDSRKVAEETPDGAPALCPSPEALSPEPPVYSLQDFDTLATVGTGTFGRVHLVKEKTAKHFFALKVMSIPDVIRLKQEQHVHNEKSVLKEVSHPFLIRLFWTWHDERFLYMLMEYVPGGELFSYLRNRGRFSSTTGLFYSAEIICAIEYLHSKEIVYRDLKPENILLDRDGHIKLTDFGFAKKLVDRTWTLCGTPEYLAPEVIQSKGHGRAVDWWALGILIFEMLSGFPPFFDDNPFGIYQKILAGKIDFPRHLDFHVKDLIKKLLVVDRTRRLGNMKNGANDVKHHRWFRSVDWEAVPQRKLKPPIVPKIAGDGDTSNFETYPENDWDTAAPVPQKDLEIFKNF

EIF2AK1 (human) = EIF2AK1 (human) (UniProt Q9BQI3)
STK39 (human) = STK39 (human) (UniProt Q9UEW8)
OXSR1 (human) = OXSR1 (human) (UniProt O95747)
CDKL5 (human) = CDKL5 (human) (UniProt O76039)
ERBB3 (human) = ERBB3 (human) (UniProt P21860)
NEK4 (human) = NEK4 (human) (UniProt P51957)
PI4KB (human) = PI4KB (human) (UniProt Q9UBF8)
[4] = tested on: EGFR (human), P00533 [T790M]
BRAF (human) = BRAF (human) (UniProt P15056)
CDK4 CCND1 (human) = CDK4 CCND1 (human) (UniProt P11802+P24385)

MAPKAPK5 (human), sequence (Q8IW41 whole entry, looked up): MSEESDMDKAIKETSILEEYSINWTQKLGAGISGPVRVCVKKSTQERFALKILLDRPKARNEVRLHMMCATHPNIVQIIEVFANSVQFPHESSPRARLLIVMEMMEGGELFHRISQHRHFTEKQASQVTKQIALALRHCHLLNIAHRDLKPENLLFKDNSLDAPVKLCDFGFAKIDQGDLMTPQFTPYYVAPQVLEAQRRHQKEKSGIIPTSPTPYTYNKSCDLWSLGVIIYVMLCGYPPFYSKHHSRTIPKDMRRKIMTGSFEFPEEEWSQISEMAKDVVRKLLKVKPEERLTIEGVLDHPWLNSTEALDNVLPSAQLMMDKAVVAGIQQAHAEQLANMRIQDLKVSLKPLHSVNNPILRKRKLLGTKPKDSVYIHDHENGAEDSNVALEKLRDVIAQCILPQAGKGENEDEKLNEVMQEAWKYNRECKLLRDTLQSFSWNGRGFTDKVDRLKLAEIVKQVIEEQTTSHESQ
AURKC (human), sequence (Q9UQB9 whole entry, looked up): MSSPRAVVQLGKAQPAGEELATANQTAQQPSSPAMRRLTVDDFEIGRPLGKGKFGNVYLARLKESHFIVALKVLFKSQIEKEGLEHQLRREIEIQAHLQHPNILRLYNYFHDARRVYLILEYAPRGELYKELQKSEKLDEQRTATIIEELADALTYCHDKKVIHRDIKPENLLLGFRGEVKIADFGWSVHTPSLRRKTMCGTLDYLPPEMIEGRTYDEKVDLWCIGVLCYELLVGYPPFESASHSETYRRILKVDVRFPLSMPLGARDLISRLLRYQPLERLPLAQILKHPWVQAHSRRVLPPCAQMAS

SMILES	kinase still bound, per cent of control (AURKA (human)) [%]	kinase still bound, per cent of control (MAPKAPK5 (human)) [%]	kinase still bound, per cent of control (ADCK4 (human)) [%]	kinase still bound, per cent of control (AURKC (human)) [%]	kinase still bound, per cent of control [1] [%]	kinase still bound, per cent of control (STK17B (human)) [%]	kinase still bound, per cent of control (CDK7 (human)) [%]	kinase still bound, per cent of control (MAP4K2 (human)) [%]	kinase still bound, per cent of control (RAF1 (human)) [%]	kinase still bound, per cent of control (SRC (human)) [%]	kinase still bound, per cent of control (CSNK2A2 (human)) [%]	kinase still bound, per cent of control (MAP4K1 (human)) [%]	kinase still bound, per cent of control (MYLK (human)) [%]	kinase still bound, per cent of control (NTRK2 (human)) [%]	kinase still bound, per cent of control (ACVR2B (human)) [%]	kinase still bound, per cent of control (ACVRL1 (human)) [%]	kinase still bound, per cent of control (EPHA5 (human)) [%]	kinase still bound, per cent of control (CSNK1D (human)) [%]	kinase still bound, per cent of control (DCLK3 (human)) [%]	kinase still bound, per cent of control (CLK4 (human)) [%]	other results
CNC(=O)c1ccc(Nc2cc(Nc3ccccc3S(=O)(=O)C(C)C)c3cc[nH]c3n2)nc1	2.7	100	25	0.65	0.05	33	1.8	11	100	0.25	18	7.9	100	0	100	100	100	100	2.8	0.35	kinase still bound, per cent of control [2]: 10%; kinase still bound, per cent of control (ABL1 (human)): 11%; kinase still bound, per cent of control (CSNK1G3 (human)): 22%; kinase still bound, per cent of control [3]: 1.2%; kinase still bound, per cent of control (PRKX (human)): 100%
O=c1cc(N2CCOCC2)oc2c(-c3cccc4c3sc3ccccc34)cccc12	98	100	73	100	72	100	100	100	97	90	100	90	91	100	98	94	100	89	100	95	kinase still bound, per cent of control (EIF2AK1 (human)): 100%; kinase still bound, per cent of control (STK39 (human)): 100%; kinase still bound, per cent of control (OXSR1 (human)): 100%; kinase still bound, per cent of control (CDKL5 (human)): 100%; kinase still bound, per cent of control (ERBB3 (human)): 72%; kinase still bound, per cent of control (NEK4 (human)): 100%; kinase still bound, per cent of control (PI4KB (human)): 100%; kinase still bound, per cent of control [4]: 100%; kinase still bound, per cent of control (BRAF (human)): 100%; kinase still bound, per cent of control (CSNK1G3 (human)): 100%; kinase still bound, per cent of control [3]: 95%; kinase still bound, per cent of control (CDK4 CCND1 (human)): 100%; kinase still bound, per cent of control (PRKX (human)): 89%
COc1cc(C(=O)N2CCC(N3CCN(C)CC3)CC2)ccc1Nc1ncc2c(n1)N(C)c1ccccc1C(=O)N2C	1.2	97	94	50	92	93	86	100	100	100	93	100	8.7	100	100	100	95	81	90	54	kinase still bound, per cent of control (EIF2AK1 (human)): 100%; kinase still bound, per cent of control (STK39 (human)): 39%; kinase still bound, per cent of control (OXSR1 (human)): 88%; kinase still bound, per cent of control (CDKL5 (human)): 100%; kinase still bound, per cent of control (ERBB3 (human)): 100%; kinase still bound, per cent of control (NEK4 (human)): 95%; kinase still bound, per cent of control (PI4KB (human)): 95%; kinase still bound, per cent of control [4]: 88%; kinase still bound, per cent of control (BRAF (human)): 81%; kinase still bound, per cent of control (CSNK1G3 (human)): 93%; kinase still bound, per cent of control [3]: 80%; kinase still bound, per cent of control (CDK4 CCND1 (human)): 100%; kinase still bound, per cent of control (PRKX (human)): 99%
